Here are results for six compounds from patent US8361988B2, “Nucleoside and nucleotide analogues with quaternary carbon centers and methods of use” (Institut de Recherches Cliniques de Montreal, priority 2007, dated 2013).

A short description of series [1]: MTT cell proliferation assay, PFSK-1. Conditions: human, PFSK-1 cells, concentration causing 50% cell death of initial cell count over 24 hours, 1% DMSO. Type of series: cell-based. As for the experimental part:
(§1) The antitumor activities of the compounds of the invention were evaluated by a cellular proliferation assay. […] The cleavage reaction form a purple formazan crystals which is largely impermeable to cell membranes resulting in its accumulation within healthy cells. Solubilisation of the cells by addition of a detergent liberates and solubilizes the formazan crystals. The number of surviving cells is directly proportional to the level of the formazan product created. The color can then be quantified spectrophotometrically. The production of purple formazan in cells treated with a compound is measured relative to the production in control cells, and dose-response curves can be generated. This assay measures the cell proliferation rate and conversely, when metabolic events lead to apoptosis or necrosis, the reduction in cell viability, thus also allowing the evaluation of the cytotoxicity of the analogues synthesized in the laboratory.
(§2) For Tables 3 and 4, the assays were performed with 1% DMSO. The abbreviation “n.d.” means “not determined.” The values EC50, CC50, and SI have the following definitions.
(§3) Cell growth equals total cell count without any inhibitor after 72 hours minus initial cell count.
(§4) SI: Selectivity Index is the ratio CC50/EC50.
On the technique in general: Formazan colour is commonly taken as a measure of viable cells.

The test system of a further series is PFSK-1. Kind of series: MTT cell proliferation assay, PFSK-1. Type of series: cell-based. The conditions noted are these: Homo sapiens, concentration reducing cell growth by 50% after 72 hours, 1% DMSO. As for the experimental part:
as §1, §2, §3, §4

A short description of series [2]: MTT cell proliferation assay, ZR-75-1. Type of series: cell-based. Conditions: human, ZR-75-1 cells, concentration causing 50% cell death of initial cell count over 24 hours, 1% DMSO. As for the experimental part:
(§5) The antitumor activities of the compounds of the invention were evaluated by a cellular proliferation assay. The MTT [3-(4,5-dimethylthiazol-2-yl)-2,5-diphenyltetrazolium bromide] cell proliferation assay, first described by Mosmann (Mosmann T., “Rapid colorimetric assay for cellular growth and survival: application to proliferation and cytotoxicity assays,” J. Immunol. Methods 1983 Dec. 16; 65(1-2):55-63, and incorporated by reference in its entirety) is based on the ability of active mitochondrial reductase enzymes from viable cells to cleave the tetrazolium rings of the pale yellow MTT. The cleavage reaction form a purple formazan crystals which is largely impermeable to cell membranes resulting in its accumulation within healthy cells. Solubilisation of the cells by addition of a detergent liberates and solubilizes the formazan crystals. The number of surviving cells is directly proportional to the level of the formazan product created. The color can then be quantified spectrophotometrically. The production of purple formazan in cells treated with a compound is measured relative to the production in control cells, and dose-response curves can be generated. This assay measures the cell proliferation rate and conversely, when metabolic events lead to apoptosis or necrosis, the reduction in cell viability, thus also allowing the evaluation of the cytotoxicity of the analogues synthesized in the laboratory.
as §2
(§6) Cell growth equals total cell count without any inhibitor after 72 hours minus initial cell count. Total cell counts after 72 hrs of growth range from 230 to 346% of initial cell counts depending on the cell line.
(§7) Total cell counts after 24 hrs of growth range from 103 to 109% of initial cell counts depending on the cell line.
as §4

The next series relates to ZR-75-1. Kind of series: MTT cell proliferation assay, ZR-75-1. Type of series: cell-based. Conditions: Homo sapiens, concentration reducing cell growth by 50% after 72 hours, 1% DMSO. As to the method:
as §5, §2, §6, §7, §4

Another series deals with human dCK (Homo sapiens, UniProt P27707). The series can be described thus: Phosphorylation assay (spectrophotometric coupled-enzyme), human dCK. Type of series: biochemical. The conditions noted are these: substrate at 100 μM; 37° C.; 1 mM ATP; triplicate. As for the experimental part:
Compounds of the invention were also tested in a phosphorylation assay using three deoxynucleoside kinases. […] The compounds were at substrate concentration of 100 μM.
Kinetic assay. […] Briefly, the individual nucleosides at 100 μM were prepared in reaction buffer containing 50 mM Tris-HCl (pH 7.5), 0.1 M KCl, 5 mM MgCl2, 1 mM DTT, 1 mM ATP, 0.21 mM phosphoenolpyruvate, 0.18 mM NADH, and 2 units/ml pyruvate kinase and 2 units/ml lactate dehydrogenase (Roche Biochemicals, Indianapolis, Ind.). Assays were performed at 37° C. by measuring the absorbance change at 340 nm. The enzyme amount was adjusted to limit NADH turnover to 10% over the time of the experiment. All experiments were performed in triplicate.

Series [3] addresses T1, Drosophila melanogaster dNK (Drosophila melanogaster, UniProt Q9XZT6).
T1 sequence (Q9XZT6 1-250): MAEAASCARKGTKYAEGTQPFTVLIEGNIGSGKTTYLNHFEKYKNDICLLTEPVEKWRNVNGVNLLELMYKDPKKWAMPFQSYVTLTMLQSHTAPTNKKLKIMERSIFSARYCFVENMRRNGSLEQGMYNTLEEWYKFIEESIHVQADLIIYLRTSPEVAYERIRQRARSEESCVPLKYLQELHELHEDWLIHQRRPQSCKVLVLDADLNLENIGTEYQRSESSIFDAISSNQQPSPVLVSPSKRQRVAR
Kind of series: Phosphorylation assay (spectrophotometric coupled-enzyme), D. melanogaster dNK. Format: biochemical. Conditions: substrate at 100 μM, 37° C., 1 mM ATP, triplicate.

A short description of series [4]: in vitro. The conditions noted are these: human, NCI H1395 cells.
The nature of series [5]: in vitro. Conditions: human, NCI H2052 cells.
Series [6] is described as follows: MTT cell proliferation assay, Panc 02.03. Type of series: cell-based. Conditions: human, Panc 02.03 cells, concentration causing 50% cell death of initial cell count over 24 hours, 1% DMSO. As for the experimental part:
as §1, §2, §3, §4

The subject of a further series is Panc 02.03. Kind of series: MTT cell proliferation assay, Panc 02.03. The conditions noted are these: Homo sapiens, concentration reducing cell growth by 50% after 72 hours, 1% DMSO. Type of series: cell-based. As for the experimental part: as §1, §2, §3, §4
The target of series [7] is Thermotoga maritima thymidine kinase (Thermotoga maritima, UniProt Q9WYN2). The series can be described thus: Phosphorylation assay (spectrophotometric coupled-enzyme), T. maritima TK. Type of series: biochemical. The conditions noted are these: substrate at 100 μM; 37° C.; 1 mM ATP; triplicate; listed as LCB-1015-1.
Series [8] is described as follows: in vitro. Conditions: human, MOLT-4 cells.

Chain of human dCK (P27707 whole entry): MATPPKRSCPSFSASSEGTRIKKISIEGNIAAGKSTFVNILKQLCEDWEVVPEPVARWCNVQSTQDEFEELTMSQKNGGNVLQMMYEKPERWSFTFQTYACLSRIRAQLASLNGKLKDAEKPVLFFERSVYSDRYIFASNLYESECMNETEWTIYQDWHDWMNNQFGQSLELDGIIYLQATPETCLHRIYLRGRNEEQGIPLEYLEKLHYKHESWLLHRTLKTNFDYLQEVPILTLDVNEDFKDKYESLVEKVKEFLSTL
Chain of Thermotoga maritima thymidine kinase (Q9WYN2 whole entry): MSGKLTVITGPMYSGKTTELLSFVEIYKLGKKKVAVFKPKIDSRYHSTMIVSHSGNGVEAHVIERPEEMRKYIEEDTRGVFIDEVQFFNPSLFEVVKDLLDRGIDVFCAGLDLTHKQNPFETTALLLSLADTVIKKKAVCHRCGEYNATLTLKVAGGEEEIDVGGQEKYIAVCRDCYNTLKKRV

Turning to `CC1(CO)C[C@H](n2ccc(N)nc2=O)O[C@@H]1CO` (mixture of isomers) [LCB-1011], the CC50 at 24 h (in series [1]; in [2]; in the series “in vitro [4]”; in the series “in vitro [5]”) was more than 500 µM throughout. The EC50 – broadly, the concentration at which the effect is half-maximal – was more than 500 µM in the series with PFSK-1 (PFSK-1, 72 h) and more than 500 µM in the series with ZR-75-1 (ZR-75-1, 72 h). In addition, on human dCK, the “Human dCK kinase substrate phosphorylation” value is 12 10^−3 μmol/min mg. Further, the “D. melanogaster dNK substrate phosphorylation” value in series [3] is 0.35 10^6 μmol/min mg.
Turning to `COC(=O)C1(C)C[C@H](n2cc(F)c(=O)[nH]c2=O)O[C@@H]1CO` (mixture of isomers) [LCB-1015, 5-(5-Fluoro-2,4-dioxo-3,4-dihydro-2H-pyrimidin-1-yl)-2-hydroxymethyl-3-methyl-tetrahydro-furan-3-carboxylic acid methyl ester], the CC50 at 24 h (in series [6]; in [1]; in series [2]; in “in vitro [4]”; in “in vitro [5]”) was more than 500 µM in each case. Besides, the EC50 is more than 500 µM in the series on Panc 02.03; 380 µM in the series on PFSK-1 (PFSK-1, 72 h); 420 µM with ZR-75-1 (ZR-75-1, 72 h). For the same compound, the “D. melanogaster dNK substrate phosphorylation” value in series [3] (listed as LCB-1015-1) is given as <0.1 10^6 μmol/min mg. Further, in [7], the “T. maritima TK substrate phosphorylation” value is on record as <1 10^−3 μmol/min mg.
Take `CC1(C(N)=O)CC(n2ccc(N)nc2=O)O[C@@H]1CO` (mixture of isomers) [LCB-1018]: the CC50 at 24 h (in series [6]; in series [1]; in series [2]; in “in vitro [4]”; in “in vitro [5]”) was more than 500 µM in each case. Moreover, the EC50 in the series on Panc 02.03 was more than 500 µM; with PFSK-1 (PFSK-1, 72 h), more than 500 µM; in the series with ZR-75-1 (ZR-75-1, 72 h) it was more than 500 µM. Also, the “Human dCK kinase substrate phosphorylation” value on human dCK was 63 10^−3 μmol/min mg. Also, in series [3], the “D. melanogaster dNK substrate phosphorylation” value was 0.2 10^6 μmol/min mg.
Turning to `CC1(CO)CC(n2ccc(N)nc2=O)O[C@@H]1CO` (mixture of isomers) [LCB-1012], the CC50 at 24 h (in series [1]; in series [2]; in the series “in vitro [4]”; in “in vitro [5]”) was more than 500 µM each time. Also, the EC50 in the series with PFSK-1 (PFSK-1, 72 h) was more than 500 µM; with ZR-75-1 (ZR-75-1, 72 h), more than 500 µM. Besides, on human dCK, the “Human dCK kinase substrate phosphorylation” value is 17 10^−3 μmol/min mg. In [3], the “D. melanogaster dNK substrate phosphorylation” value is 5.94 10^6 μmol/min mg.
For the compound `COC(=O)c1cn([C@H]2S[C@@H](CO)C(O)[C@@H]2O)nn1` (some centres unmarked) [LCB-1013], the “Human dCK kinase substrate phosphorylation” value on human dCK is <1 10^−3 μmol/min mg. For the same compound, the “D. melanogaster dNK substrate phosphorylation” value in series [3] is given as <0.1 10^6 μmol/min mg.
Consider `Nc1ccn([C@@H]2O[C@H](CO)[C@@H](O)[C@@H]2O)c(=O)n1` [Cytarabine, reference compound], for which the CC50 (as a rule, the concentration giving 50% cytotoxicity) at 24 h in series [6] was more than 500 µM; in series [1], more than 500 µM; in [2], more than 500 µM; in “in vitro [8]” it was more than 500 µM; in “in vitro [4]” it was 428 µM; in the series “in vitro [5]”, more than 500 µM. Besides, the 50% effective concentration (EC50) is 300 µM in the series on Panc 02.03, 360 µM with PFSK-1 and more than 500 µM in the series on ZR-75-1.
